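All cell lines were grown in 96-well plates and treated with compound for 48 hours. Definition used: TGI = concentration required for complete inhibition of growth.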
Key:
Test in all cases: growth of human tumour cells (NCI), 48 h
786-0 renal = system: 786-0 renal
A498 renal = system: A498 renal
A549 NSCLC = system: A549 NSCLC
ACHN renal = system: ACHN renal
CAKI-1 renal = system: CAKI-1 renal
CCRF-CEM leukemia = system: CCRF-CEM leukemia
COLO 205 colon = system: COLO 205 colon
DLD-1 colon = system: DLD-1 colon
HCT-116 colon = system: HCT-116 colon
HCT-15 colon = system: HCT-15 colon
HL-60(TB) leukemia = system: HL-60(TB) leukemia
HOP-18 NSCLC = system: HOP-18 NSCLC
HOP-62 NSCLC = system: HOP-62 NSCLC
HOP-92 NSCLC = system: HOP-92 NSCLC
HT29 colon = system: HT29 colon
IGROV1 ovarian = system: IGROV1 ovarian
K-562 leukemia = system: K-562 leukemia
KM12 colon = system: KM12 colon
KM20L2 colon = system: KM20L2 colon
LOX IMVI melanoma = system: LOX IMVI melanoma
LXFL 529 NSCLC = system: LXFL 529 NSCLC
M14 melanoma = system: M14 melanoma
M19-MEL melanoma = system: M19-MEL melanoma
MALME-3M melanoma = system: MALME-3M melanoma
MOLT-4 leukemia = system: MOLT-4 leukemia
NCI-H226 lung = system: NCI-H226 lung
NCI-H23 lung = system: NCI-H23 lung
NCI-H460 lung = system: NCI-H460 lung
NCI-H522 lung = system: NCI-H522 lung
OVCAR-3 ovarian = system: OVCAR-3 ovarian
OVCAR-4 ovarian = system: OVCAR-4 ovarian
OVCAR-5 ovarian = system: OVCAR-5 ovarian
OVCAR-8 ovarian = system: OVCAR-8 ovarian
RPMI-8226 leukemia = system: RPMI-8226 leukemia
SF-268 CNS = system: SF-268 CNS
SF-295 CNS = system: SF-295 CNS
SF-539 CNS = system: SF-539 CNS
SK-MEL-2 melanoma = system: SK-MEL-2 melanoma
SK-MEL-28 melanoma = system: SK-MEL-28 melanoma
SK-MEL-5 melanoma = system: SK-MEL-5 melanoma
SK-OV-3 ovarian = system: SK-OV-3 ovarian
SN12C renal = system: SN12C renal
SNB-19 CNS = system: SNB-19 CNS
SNB-75 CNS = system: SNB-75 CNS
SNB-78 CNS = system: SNB-78 CNS
SR leukemia = system: SR leukemia
SW-620 colon = system: SW-620 colon
TK-10 renal = system: TK-10 renal
U251 CNS = system: U251 CNS
UACC-257 melanoma = system: UACC-257 melanoma
UACC-62 melanoma = system: UACC-62 melanoma
UO-31 renal = system: UO-31 renal
DMS 114 small cell lung = system: DMS 114 small cell lung
EKVX NSCLC = system: EKVX NSCLC
HCC-2998 colon = system: HCC-2998 colon

Measured: TGI

COc1ccc(NC(=O)CC(=O)NN2C(=O)/C(=C/c3ccc(N(CCC#N)CCC#N)cc3C)N=C2/C=C\c2ccccc2)cc1
not listed: DMS 114 small cell lung | EKVX NSCLC | HCC-2998 colon
> 100 µM: all other assays above

C/C(=C1/N=C(c2cc([N+](=O)[O-])ccc2Cl)N(c2ccc(Br)cc2)C1=O)c1cc2ccccc2oc1=O
66.8 µM: A498 renal
52.4 µM: NCI-H522 lung
21.8 µM: COLO 205 colon
65.1 µM: HCC-2998 colon
not listed: 786-0 renal | HOP-92 NSCLC | TK-10 renal
> 100 µM: all other assays above

Reference: PubChem BioAssay (NCI)
